Experimental data as given in paper PMC12040969, “Design, synthesis, in silico studies, and apoptotic antiproliferative activity of novel thiazole-2-acetamide derivatives as tubulin polymerization inhibitors” (Frontiers in Chemistry, 2025).
Several values for one entry are separate records, joined by “and”; a condition that tells them apart may be missing. Identical values can stand only once. Like-named read-outs stand apart in the source and are kept apart here. Values belong to the compound of their own block, whether it stands above or below them.

Columns and labels:
tubulin [1] = tested on: tubulin; set-up: method as in El-Abd et al., 2022; conditions: ref El-Abd et al., 2022; read-out: Tubulin polymerization IC50; cited from earlier work
colon - HCT-116 = assay: Antiproliferative assay (MTT) HCT-116
[2] = tested on: four human cancer cell lines (HCT-116, PC-3, MCF-7, MDAMB-231); assay: Antiproliferative assay, mean of four cell lines (GI50); conditions: Homo sapiens, read-out: GI50 (average IC50)
tubulin [3] = assay: Tubulin polymerization inhibition assay (Cytoskeleton kit); conditions: for Tub %inh: 30 min, YB-EGY run; for Tub K.Activity: EC = 120, YB-EGY run;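 for all read-outs here: Cell-free tubulin polymerization read by fluorescent reporter enhancement over a 30 min reaction, with the compound-free kit control taken as 100% activity and inhibition relative to it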
[4] = Cell viability assay (MTT), normal cells; assay type: cell-based; conditions: human, MCF-10A normal mammary gland epithelial cells, four-day incubation
breast - MCF-7 = assay: Antiproliferative assay (MTT) MCF-7
[5] = tested on: Bcl-2 in MDAMB-231 cancer cell line; assay: Bcl-2 level assay; assay type: cell-based, human; conditions: MDAMB-231 cells
From the text: (§1) […]. Supplementary Appendix A provides more information.

prostatic - PC-3 = assay: Antiproliferative assay (MTT) PC-3
- MDAMB-231 = assay: Antiproliferative assay (MTT) MDAMB-231
pancreatic - MDAMB-231 = assay: Antiproliferative assay (MTT) MDAMB-231
[6] = tested on: Caspase-9 in MDAMB-231 cancer cell line; assay: Caspase-9 activation assay; assay type: cell-based, human; conditions: MDAMB-231 cells
Experimental: […]. Compound 10o was the least efficient derivative as caspase-9 activators (0.90 ng/mL).
as §1

[7] = tested on: Caspase-3 in MDAMB-231 cancer cell line; assay: Caspase-3 activation assay; assay type: cell-based, human; conditions: MDAMB-231 cells
From the text: as §1

[8] = tested on: Bax in MDAMB-231 cancer cell line; assay: Bax level assay; assay type: cell-based, human; conditions: MDAMB-231 cells
From the text: as §1

Compound: COc1cc(-c2csc(NC(=O)CNc3ccc([N+](=O)[O-])cc3)n2)cc(OC)c1OC [IV]
IC50 (tubulin [1]): 2 ± 0.12 µM

IC50 (colon - HCT-116; read-out: Antiproliferative activity IC50 ± SEM (µM) HCT-116, HCT-116, MTT): 6 ± 0.4 µM
IC50 [2]: 7 µM
IC50 (tubulin [3]; read-out: Tubulin inhibition IC50 ± SEM, triplicate for each tested concentration): 3.62 ± 0.11 µM
IC50 (breast - MCF-7; read-out: Antiproliferative activity IC50 ± SEM (µM) MCF-7, MCF-7, MTT): 5 ± 0.4 µM
IC50 (prostatic - PC-3; read-out: Antiproliferative activity IC50 ± SEM (µM) PC-3, PC-3, MTT): 13 ± 1 µM
IC50 (pancreatic - MDAMB-231; read-out: Antiproliferative activity IC50 ± SEM (µM) MDAMB-231, MDAMB-231, MTT): 3 ± 0.1 µM
Compound: COc1ccc(/C=C/C(=O)c2sc(SCC(=O)Nc3nc(-c4ccc(C)cc4)cs3)nc2C)cc1 [Compound 10o, (E)-2-((5-(3-(4-methoxyphenyl)acryloyl)-4-methylthiazol-2-yl)thio)-N-(4-(p-tolyl)thiazol-2-yl)acetamide]
Average of Relative viability of cells (%) (colon - HCT-116; HCT-116, 1.56 µM): 89.1%
Average of Relative viability of cells (%) (colon - HCT-116; HCT-116, 3.125 µM): 66.5%
Average of Relative viability of cells (%) (colon - HCT-116; HCT-116, 6.25 µM): 51.6%
Average of Relative viability of cells (%) (colon - HCT-116; HCT-116, 12.5 µM): 24.5%
Average of Relative viability of cells (%) (colon - HCT-116; HCT-116, 25 µM): 22.7%
Average of Relative viability of cells (%) (colon - HCT-116; HCT-116, 50 µM): 15.2%
Average of Relative viability of cells (%) (colon - HCT-116; HCT-116, 100 µM): 7.8%
Tub %inh (tubulin [3]; conc 0.1 (unit not given)): 16%
Tub K.Activity (tubulin [3]; conc 0.1 (unit not given)): 100.77
Tub %inh (tubulin [3]; conc 1 (unit not given)): 34%
Tub K.Activity (tubulin [3]; conc 1 (unit not given)): 79.173
Tub %inh (tubulin [3]; conc 10 (unit not given)): 54.8%
Tub K.Activity (tubulin [3]; conc 10 (unit not given)): 54.254
Tub %inh (tubulin [3]; conc 50 (unit not given)): 76.2%
Tub K.Activity (tubulin [3]; conc 50 (unit not given)): 28.504
Tub %inh (tubulin [3]; conc 100 (unit not given)): 90.9%
Tub K.Activity (tubulin [3]; conc 100 (unit not given)): 10.964
viability at 96 h, 50 µM [4]: 90%
Average of Relative viability of cells (%) (breast - MCF-7; MCF-7, 1.56 µM): 73.4%
Average of Relative viability of cells (%) (breast - MCF-7; MCF-7, 3.125 µM): 61.6%
Average of Relative viability of cells (%) (breast - MCF-7; MCF-7, 6.25 µM): 45.1%
Average of Relative viability of cells (%) (breast - MCF-7; MCF-7, 12.5 µM): 29.7%
Average of Relative viability of cells (%) (breast - MCF-7; MCF-7, 25 µM): 20.3%
Average of Relative viability of cells (%) (breast - MCF-7; MCF-7, 50 µM): 11.9%
Average of Relative viability of cells (%) (breast - MCF-7; MCF-7, 100 µM): 7.2%
Bcl-2 Conc [5]: 1.05 ng/mL
Bcl-2 Fold reduction ([5]; relative to untreated control): 5 fold
Average of Relative viability of cells (%) (prostatic - PC-3; PC-3, 1.56 µM): 99.3%
Average of Relative viability of cells (%) (prostatic - PC-3; PC-3, 3.125 µM): 87.4%
Average of Relative viability of cells (%) (prostatic - PC-3; PC-3, 6.25 µM): 61.1%
Average of Relative viability of cells (%) (prostatic - PC-3; PC-3, 12.5 µM): 48.2%
Average of Relative viability of cells (%) (prostatic - PC-3; PC-3, 25 µM): 31.6%
Average of Relative viability of cells (%) (prostatic - PC-3; PC-3, 50 µM): 23.7%
Average of Relative viability of cells (%) (prostatic - PC-3; PC-3, 100 µM): 14.3%
Average of Relative viability of cells (%) (- MDAMB-231; MDAMB-231, 1.56 µM): 61.2%
Average of Relative viability of cells (%) (- MDAMB-231; MDAMB-231, 3.125 µM): 47.1%
Average of Relative viability of cells (%) (- MDAMB-231; MDAMB-231, 6.25 µM): 37.3%
Average of Relative viability of cells (%) (- MDAMB-231; MDAMB-231, 12.5 µM): 26.7%
Average of Relative viability of cells (%) (- MDAMB-231; MDAMB-231, 25 µM): 17.6%
Average of Relative viability of cells (%) (- MDAMB-231; MDAMB-231, 50 µM): 10.2%
Average of Relative viability of cells (%) (- MDAMB-231; MDAMB-231, 100 µM): 4.5%
More potency than sorafenib, MDAMB-231 (pancreatic - MDAMB-231; MDAMB-231 cancer cell line): 2.7 fold
Caspase-9 Conc [6]: 0.90 ng/mL and 0.90 ± 0.10 ng/mL
Caspase-9 Fold change ([6]; relative to untreated control): 9 fold
Caspase-3 Conc [7]: 605 ± 5 pg/mL
Caspase-3 Fold change ([7]; relative to untreated control): 9 fold
Bax Conc [8]: 285 pg/mL and 285 ± 7 pg/mL
Bax Fold change ([8]; relative to untreated control): 35 fold
